Reference: patent publication US7563782B2, “T-type calcium channel blocker” (Nissan Chemical Industries, Ltd., priority 2003, dated 2009)

Assays:
T-type Ca channel (α1G) = target: T1, T-type Ca channel (α1G) (Homo sapiens, UniProt O43497); test: Pharmacological Test Example 1: whole cell patch clamp, Ca current inhibition in BHK cells expressing T-type Ca channel; assay type: cell-based
T1 construct: expressed in transfected cells; host or cells: BHK (baby hamster kidney) cells
Method: (§1) Pharmacological Test Example 1 (effect on L-type and T-type Ca (calcium) channel expressed in mammalian cells (BHK cells))
(§2) In this test, an electrophysiological evaluation was carried out by use of BHK (baby hamster kidney) cells in which L-type Ca channel or T-type Ca channel (α1G) was expressed according to the method of Wakamori M et al. (Wakamori M et al.: J Biol Chem 273, 34857-34867,1998) based on the whole cell patch clamp method. Each Ca-ion current was measured through a patch clamp amplifier as an inward current when depolarization pulse (10 mV in L-type Ca channel, −20 mV in T-type Ca channel) was applied to cells maintained at a membrane potential of −80 mV. Optically active R-form or S-form of efonidipine was dissolved in extracellular solution and applied with perfusion. At 5 minutes after the application, any variation in Ca-ion current was measured. The results are shown in Ca current inhibition (%) of the compound of the present invention to Ca current (100%) in vehicle control.

L-type Ca channel = test: Pharmacological Test Example 1: whole cell patch clamp, Ca current inhibition in BHK cells expressing L-type Ca channel; assay type: cell-based; details: for Inhibition (%): L-type Ca channel, BHK cells, 5 minutes after application, mean ± SE
Method: as §1, §2

[1] = T-type Ca channel, concentration 0.1 μM, BHK cells, 5 minutes after application, mean ± SE, 0.1 µM

T1 sequence (O43497 whole entry): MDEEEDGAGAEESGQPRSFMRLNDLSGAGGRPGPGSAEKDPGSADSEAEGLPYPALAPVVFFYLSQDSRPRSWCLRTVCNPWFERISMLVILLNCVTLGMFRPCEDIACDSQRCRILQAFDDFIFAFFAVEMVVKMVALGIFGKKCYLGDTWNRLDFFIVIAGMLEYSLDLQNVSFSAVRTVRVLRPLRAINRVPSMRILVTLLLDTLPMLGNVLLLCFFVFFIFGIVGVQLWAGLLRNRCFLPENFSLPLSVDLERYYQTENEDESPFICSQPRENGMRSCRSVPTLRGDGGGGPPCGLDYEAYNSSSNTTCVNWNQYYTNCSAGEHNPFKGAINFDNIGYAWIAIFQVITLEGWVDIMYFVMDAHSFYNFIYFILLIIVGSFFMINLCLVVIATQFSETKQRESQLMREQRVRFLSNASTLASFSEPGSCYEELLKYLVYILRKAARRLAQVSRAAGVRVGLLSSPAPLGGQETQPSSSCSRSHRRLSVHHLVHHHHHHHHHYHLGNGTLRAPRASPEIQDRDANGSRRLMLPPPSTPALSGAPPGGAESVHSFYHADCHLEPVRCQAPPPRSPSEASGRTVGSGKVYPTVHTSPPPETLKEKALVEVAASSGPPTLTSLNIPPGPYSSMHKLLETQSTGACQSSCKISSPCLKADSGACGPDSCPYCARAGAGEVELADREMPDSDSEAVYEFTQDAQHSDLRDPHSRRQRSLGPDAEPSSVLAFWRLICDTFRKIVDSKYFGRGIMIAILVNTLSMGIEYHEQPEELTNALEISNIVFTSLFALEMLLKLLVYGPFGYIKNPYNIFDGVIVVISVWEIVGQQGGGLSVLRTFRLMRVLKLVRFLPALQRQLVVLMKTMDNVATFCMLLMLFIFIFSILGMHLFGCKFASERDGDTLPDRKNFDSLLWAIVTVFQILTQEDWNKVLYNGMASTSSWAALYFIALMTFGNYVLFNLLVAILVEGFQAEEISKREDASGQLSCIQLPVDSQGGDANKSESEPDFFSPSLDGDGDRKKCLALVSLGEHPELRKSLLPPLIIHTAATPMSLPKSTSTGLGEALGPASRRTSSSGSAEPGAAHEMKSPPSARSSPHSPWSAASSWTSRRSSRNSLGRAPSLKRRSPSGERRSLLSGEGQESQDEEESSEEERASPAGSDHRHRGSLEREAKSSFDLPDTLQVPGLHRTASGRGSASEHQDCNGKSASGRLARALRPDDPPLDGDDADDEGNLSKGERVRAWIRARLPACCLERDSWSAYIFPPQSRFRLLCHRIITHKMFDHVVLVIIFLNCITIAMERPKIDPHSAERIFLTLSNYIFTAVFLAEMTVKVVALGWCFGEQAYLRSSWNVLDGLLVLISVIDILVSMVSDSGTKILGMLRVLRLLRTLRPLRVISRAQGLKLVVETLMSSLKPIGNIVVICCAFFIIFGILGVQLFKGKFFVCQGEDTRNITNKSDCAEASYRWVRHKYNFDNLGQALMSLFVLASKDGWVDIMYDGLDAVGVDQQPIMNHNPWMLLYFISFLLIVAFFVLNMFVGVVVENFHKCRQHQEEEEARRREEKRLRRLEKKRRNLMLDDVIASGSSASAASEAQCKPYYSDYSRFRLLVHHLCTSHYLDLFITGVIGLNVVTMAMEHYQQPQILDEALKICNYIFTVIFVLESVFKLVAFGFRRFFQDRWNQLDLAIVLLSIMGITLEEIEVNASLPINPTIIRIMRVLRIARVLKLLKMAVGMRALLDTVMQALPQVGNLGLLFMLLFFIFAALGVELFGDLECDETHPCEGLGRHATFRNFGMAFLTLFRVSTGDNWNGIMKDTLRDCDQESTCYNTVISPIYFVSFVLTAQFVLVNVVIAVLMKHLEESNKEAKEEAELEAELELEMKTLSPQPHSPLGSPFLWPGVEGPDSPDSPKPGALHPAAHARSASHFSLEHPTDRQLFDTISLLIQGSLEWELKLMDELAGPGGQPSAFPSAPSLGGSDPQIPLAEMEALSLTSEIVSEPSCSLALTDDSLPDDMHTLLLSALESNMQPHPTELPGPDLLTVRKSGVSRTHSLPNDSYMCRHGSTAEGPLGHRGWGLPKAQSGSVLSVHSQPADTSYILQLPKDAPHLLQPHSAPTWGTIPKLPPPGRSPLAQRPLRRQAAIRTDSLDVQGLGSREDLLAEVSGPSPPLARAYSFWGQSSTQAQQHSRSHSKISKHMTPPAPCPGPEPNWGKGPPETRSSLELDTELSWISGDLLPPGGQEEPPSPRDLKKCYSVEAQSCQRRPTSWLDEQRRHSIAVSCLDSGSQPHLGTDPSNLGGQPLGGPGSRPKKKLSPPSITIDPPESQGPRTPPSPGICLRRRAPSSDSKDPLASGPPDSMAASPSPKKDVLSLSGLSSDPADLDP

SMILES | inhibition at 1 µM (T-type Ca channel (α1G); BHK, T-type Ca channel, concentration 1 μM, BHK cells, 5 minutes after application, mean ± SE) [%] | inhibition at 10 µM (T-type Ca channel (α1G); BHK, T-type Ca channel, concentration 10 μM, BHK cells, 5 minutes after application, mean ± SE) [%] | Inhibition (%) (T-type Ca channel (α1G); [1]) | selectivity for T-type Ca channel (T-type Ca channel (α1G); T-type versus L-type Ca channel) | inhibition for T-type Ca channel (in words) (T-type Ca channel (α1G); concentration of 0.1 μM or more) | Inhibition (%) (L-type Ca channel; concentration 10 μM) | inhibition for L-type Ca channel (in words) (L-type Ca channel; concentration of 10 μM) | Inhibition (%) (T-type Ca channel (α1G); T-type Ca channel, concentration 1 μM, BHK cells, 5 minutes after application, mean ± SE, 1 µM) | Inhibition (%) (T-type Ca channel (α1G); T-type Ca channel, concentration 10 μM, BHK cells, 5 minutes after application, mean ± SE, 10 µM) | Inhibition (%) (L-type Ca channel; concentration 1 μM)
CC1=C(C(=O)OCCN(Cc2ccccc2)c2ccccc2)C(c2cccc([N+](=O)[O-])c2)C(P2(=O)OCC(C)(C)CO2)=C(C)N1 (centres unmarked) [Efonidipine R-form, 1,4-dihydro-2,6-dimethyl-5-(5,5-dimethyl-2-oxo-1,3,2-dioxaphosphorinan-2-yl)-4-(3-nitrophenyl)-3-pyridine carboxylic acid 2-[benzyl (phenyl)amino]ethylester] | 41.7 ± 5.3 | 72.7 ± 5.6 | 19.4 ± 4.88 | high selectivity | concentration-dependent inhibition | 2.2 ± 3.4 | did not show any inhibition |  |  | 
CC1=C(C(=O)OCCN(Cc2ccccc2)c2ccccc2)C(c2cccc([N+](=O)[O-])c2)C(P2(=O)OCC(C)(C)CO2)=C(C)N1 (centres unmarked) [Efonidipine S-form, 1,4-dihydro-2,6-dimethyl-5-(5,5-dimethyl-2-oxo-1,3,2-dioxaphosphorinan-2-yl)-4-(3-nitrophenyl)-3-pyridine carboxylic acid 2-[benzyl (phenyl)amino]ethylester, reference compound] |  |  | 7.7 |  |  |  |  | 42.9 ± 8.4 | 75.6 ± 7.1 | 55.6±7.1
